Measured values taken from PubChem BioAssay AID2060338 (Molecular Pharmacology Branch, DTP, NCI, 2025).

Tested on: 556581-035-R-J1-PDC spheroids with HUVEC/MSC, viability
Experiment: Anticancer human tumor 556581-035-R-J1-PDC patient-derived ovarian carcinoma cell line growth inhibition [IpAb]
Settings: for IC50: curve of first compound; for viability, T/C: stronger effect = lower value
Text: Combinatorial screen of targeted agents with ipatasertib and abemaciclib in multi-cell type tumor spheroids
A high-throughput screen of multi-cell type tumor spheroids was designed to identify active combinations of targeted small molecules and ipatasertib or abemaciclib. Complex spheroids include a stromal component modeled by human endothelial cells (HUVEC) and fibroblasts modeled by human mesenchymal stem cells (MSCs). The concentration ranges selected for each drug and investigational agent were based upon clinically achievable concentrations if the clinical Cmax of the agent was known.
Compounds. The drugs and investigational agents: ipatasertib (NSC767898), abemaciclib(NSC768073), selumetinib (NSC741078), trametinib (758246), adavosertib (NSC754352), everolimus (NSC733504), sapanisertib (NSC764658), vemurafenib (NSC761431), venetoclax (NSC766270), copanlisib (NSC809693), apelisib (NSC765974), palbociblib (NSC758247), vemurafenib (NSC761431), dabrafenib (NSC764134), ravoxertinib (NSC781343), BMS-387032 (NSC767048), sotorasib (NSC818433), talazoparib (NSC767125) and afursertib (NSC778305), were obtained from the National Cancer Institute (NCI) Developmental Therapeutics Program Chemical Repository. The FDA-approved anticancer drug set is available from the NCI Developmental Therapeutics Program. […] The stock solutions were prepared in dimethyl sulfoxide (DMSO, Sigma-Aldrich, St. Louis, MO, cat. D2650) at 800-fold the tested concentration and stored at -70 degrees C prior to their use. All drugs and investigational agents were tested over a range starting from a high concentration at or near the clinical Cmax and decreasing in half-log increments. If the clinical Cmax for an agent had not been determined, the highest concentration tested was 10 microM.
NCI60 Cell Culture. NCI60 cell lines were obtained from the NCI Developmental Therapeutics Program Tumor Repository. For each lot of cells, the Repository performed Applied Biosystems AmpFLSTR Identifiler testing with PCR amplification to confirm consistency with the published Identifier STR profile for each cell line. Cells were kept in continuous culture for no more than 20 passages. The optimal seeding densities for each of the cell lines at each time point assessed were determined prior to performing the concentration response studies. Briefly, the NCI60 human tumor lines were grown as monolayers in RPMI 1640 medium supplemented with 10% FBS and 2 mmol/L L-glutamine.
An additional 9 lines were from the NCI60 cell line panel including MDA-MB-231 breast carcinoma, MDA-MB-468 breast carcinoma, MCF7 breast carcinoma, Hs578T breast carcinoma, MALME-3M melanoma, SK-MEL-2 melanoma, SK-OV-3 ovarian carcinoma, DU-145 prostate carcinoma, PC-3 prostate carcinoma, all cell lines along with major genetic alterations are listed on Table 2. Pooled donor human umbilical vein endothelial cells (HUVEC, Lonza, cat. CC-2519) and human mesenchymal stem cells (hMSC, Lonza, cat. PT-2501) were purchased from Lonza (Walkersville, MD).
PDMR cell lines were grown in complete medium (DC medium): Dulbecco's modified Eagle's medium (DMEM)/F12 supplemented with 5% fetal bovine serum (FBS), 2 mM L-glutamine, 100 U/mL penicillin and 100 µg/ml streptomycin, 0.4 µg/ml hydrocortisone, 10 ng/ml epidermal growth factor (EGF) recombinant human protein, 24 µg/mL adenine, and 0.1 mg/mL primocin. During culture from frozen stock vials, PDMR cells were cultured in the same medium containing 10 µM Y-27632 (see Table 3). The PDCs were cultured in complete DMEM/F12 media without 10 microM Y-27632 dihydrochloride for at least two passages prior to the screen. The pooled donor HUVEC and hMSC were cultured in endothelial cell growth medium 2 (PromoCell, Heidelberg, Germany, cat. C-22011) and mesenchymal stem cell growth medium 2 (PromoCell, cat. C-28009), respectively. For all experiments, HUVEC and hMSC were used at passages </=5.
[…]

[1] = second compound 0.1 µM, first compound 0.00949 µM
[2] = second compound 0.1 µM, first compound 0.03 µM
[3] = second compound 0.1 µM, first compound 0.0949 µM
[4] = second compound 0.1 µM, first compound 0.3 µM
[5] = second compound 0.316 µM, first compound 0.00949 µM
[6] = second compound 0.316 µM, first compound 0.03 µM
[7] = second compound 0.316 µM, first compound 0.0949 µM
[8] = second compound 0.316 µM, first compound 0.3 µM
[9] = second compound 1 µM, first compound 0.00949 µM
[10] = second compound 1 µM, first compound 0.03 µM
[11] = second compound 1 µM, first compound 0.0949 µM
[12] = second compound 1 µM, first compound 0.3 µM
[13] = second compound 3.16 µM, first compound 0.00949 µM
[14] = second compound 3.16 µM, first compound 0.03 µM
[15] = second compound 3.16 µM, first compound 0.0949 µM
[16] = second compound 3.16 µM, first compound 0.3 µM
[17] = second compound 10 µM, first compound 0.00949 µM
[18] = second compound 10 µM, first compound 0.03 µM
[19] = second compound 10 µM, first compound 0.0949 µM
[20] = second compound 10 µM, first compound 0.3 µM
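Note: spheroids exposed to compounds for 7 days before readout.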

CC(=O)c1c(C)c2cnc(Nc3ccc(N4CCNCC4)cn3)nc2n(C2CCCC2)c1=O + CC(C)NCC(C(=O)N1CCN(c2ncnc3c2C(C)CC3O)CC1)c1ccc(Cl)cc1
IC50 (second compound 0.1 µM): > 0.3 µM | IC50 (second compound 0.316 µM): > 0.3 µM | IC50 (second compound 1 µM): > 0.3 µM | IC50 (second compound 3.16 µM): > 0.3 µM | IC50 (second compound 10 µM): < 0.000949 µM | viability, T/C (second compound 0.1 µM, first compound 0.000949 µM): 98.2% | viability, T/C (second compound 0.1 µM, first compound 0.003 µM): 115% | viability, T/C [1]: 95.5% | viability, T/C [2]: 96% | viability, T/C [3]: 99% | viability, T/C [4]: 87.2% | viability, T/C (second compound 0.316 µM, first compound 0.000949 µM): 77.8% | viability, T/C (second compound 0.316 µM, first compound 0.003 µM): 90.4% | viability, T/C [5]: 85.9% | viability, T/C [6]: 76% | viability, T/C [7]: 85.3% | viability, T/C [8]: 82.4% | viability, T/C (second compound 1 µM, first compound 0.000949 µM): 59.9% | viability, T/C (second compound 1 µM, first compound 0.003 µM): 65.7% | viability, T/C [9]: 68.1% | viability, T/C [10]: 56.4% | viability, T/C [11]: 65.3% | viability, T/C [12]: 63.5% | viability, T/C (second compound 3.16 µM, first compound 0.000949 µM): 57.8% | viability, T/C (second compound 3.16 µM, first compound 0.003 µM): 61.7% | viability, T/C [13]: 49.9% | viability, T/C [14]: 55.4% | viability, T/C [15]: 58.1% | viability, T/C [16]: 58% | viability, T/C (second compound 10 µM, first compound 0.000949 µM): 47.9% | viability, T/C (second compound 10 µM, first compound 0.003 µM): 47.4% | viability, T/C [17]: 48.6% | viability, T/C [18]: 49.6% | viability, T/C [19]: 45.8% | viability, T/C [20]: 48.4%

C=CC(=O)N1CCN(c2nc(=O)n(-c3c(C)ccnc3C(C)C)c3nc(-c4c(O)cccc4F)c(F)cc23)C(C)C1 (stereo not given) + CC(C)NCC(C(=O)N1CCN(c2ncnc3c2C(C)CC3O)CC1)c1ccc(Cl)cc1
IC50 (second compound 0.1 µM): 5.38 µM | IC50 (second compound 0.316 µM): 6.53 µM | IC50 (second compound 1 µM): 4.02 µM | IC50 (second compound 3.16 µM): 1.79 µM | IC50 (second compound 10 µM): < 0.0316 µM | viability, T/C (second compound 0.1 µM, first compound 0.0316 µM): 99.9% | viability, T/C (second compound 0.1 µM, first compound 0.1 µM): 108% | viability, T/C (second compound 0.1 µM, first compound 0.316 µM): 103% | viability, T/C (second compound 0.1 µM, first compound 1 µM): 111% | viability, T/C (second compound 0.1 µM, first compound 3.16 µM): 68.6% | viability, T/C (second compound 0.1 µM, first compound 10 µM): 28.3% | viability, T/C (second compound 0.316 µM, first compound 0.0316 µM): 79.8% | viability, T/C (second compound 0.316 µM, first compound 0.1 µM): 79.1% | viability, T/C (second compound 0.316 µM, first compound 0.316 µM): 74% | viability, T/C (second compound 0.316 µM, first compound 1 µM): 85.1% | viability, T/C (second compound 0.316 µM, first compound 3.16 µM): 73.4% | viability, T/C (second compound 0.316 µM, first compound 10 µM): 35.4% | viability, T/C (second compound 1 µM, first compound 0.0316 µM): 74.3% | viability, T/C (second compound 1 µM, first compound 0.1 µM): 65.6% | viability, T/C (second compound 1 µM, first compound 0.316 µM): 59.8% | viability, T/C (second compound 1 µM, first compound 1 µM): 64% | viability, T/C (second compound 1 µM, first compound 3.16 µM): 57% | viability, T/C (second compound 1 µM, first compound 10 µM): 28.4% | viability, T/C (second compound 3.16 µM, first compound 0.0316 µM): 54.5% | viability, T/C (second compound 3.16 µM, first compound 0.1 µM): 54.5% | viability, T/C (second compound 3.16 µM, first compound 0.316 µM): 52.6% | viability, T/C (second compound 3.16 µM, first compound 1 µM): 47.9% | viability, T/C (second compound 3.16 µM, first compound 3.16 µM): 48.9% | viability, T/C (second compound 3.16 µM, first compound 10 µM): 21.8% | viability, T/C (second compound 10 µM, first compound 0.0316 µM): 44.6% | viability, T/C (second compound 10 µM, first compound 0.1 µM): 48.2% | viability, T/C (second compound 10 µM, first compound 0.316 µM): 45.5% | viability, T/C (second compound 10 µM, first compound 1 µM): 48.5% | viability, T/C (second compound 10 µM, first compound 3.16 µM): 34.9% | viability, T/C (second compound 10 µM, first compound 10 µM): 13.5%

CC(C)(C)c1cnc(CSc2cnc(NC(=O)C3CCNCC3)s2)o1 + CC(C)NCC(C(=O)N1CCN(c2ncnc3c2C(C)CC3O)CC1)c1ccc(Cl)cc1
IC50 (second compound 0.1 µM): 0.107 µM | IC50 (second compound 0.316 µM): 0.137 µM | IC50 (second compound 1 µM): 0.0552 µM | IC50 (second compound 3.16 µM): 0.0429 µM | IC50 (second compound 10 µM): < 0.00949 µM | viability, T/C [1]: 86.1% | viability, T/C [2]: 116% | viability, T/C [3]: 55.3% | viability, T/C [4]: 3.48% | viability, T/C (second compound 0.1 µM, first compound 0.949 µM): 3.84% | viability, T/C (second compound 0.1 µM, first compound 3 µM): 2.08% | viability, T/C [5]: 81.1% | viability, T/C [6]: 89.9% | viability, T/C [7]: 71.9% | viability, T/C [8]: 3.02% | viability, T/C (second compound 0.316 µM, first compound 0.949 µM): 2.73% | viability, T/C (second compound 0.316 µM, first compound 3 µM): 3.48% | viability, T/C [9]: 64.6% | viability, T/C [10]: 65.4% | viability, T/C [11]: 36.7% | viability, T/C [12]: 2.25% | viability, T/C (second compound 1 µM, first compound 0.949 µM): 2.57% | viability, T/C (second compound 1 µM, first compound 3 µM): 3.16% | viability, T/C [13]: 56.4% | viability, T/C [14]: 55.7% | viability, T/C [15]: 36.6% | viability, T/C [16]: 2.16% | viability, T/C (second compound 3.16 µM, first compound 0.949 µM): 3.96% | viability, T/C (second compound 3.16 µM, first compound 3 µM): 2.31% | viability, T/C [17]: 46.1% | viability, T/C [18]: 44.2% | viability, T/C [19]: 11.5% | viability, T/C [20]: 2.21% | viability, T/C (second compound 10 µM, first compound 0.949 µM): 1.45% | viability, T/C (second compound 10 µM, first compound 3 µM): 1.36%
